Assay results taken from ChEMBL document CHEMBL5729167, “Substituted dihydrothienopyrimidines and their use as phosphodiesterase inhibitors” (2022).

Target: Tumor necrosis factor (Homo sapiens, UniProt P01375)
Assay: TNF-alpha RELEASE: Human peripheral blood mononuclear cells (PBMC) were isolated from fresh buffy coats by density centrifugation using lymphoprep tubes (Medinor). Frozen PBMC's were washed in serum free assay buffer (RPMI1640 with 25 mM HEPES, 1% pen/strep, […], 0.5% human serum albumin) and living cells counted. Lipopolysaccharide (1 microg/ml; SIGMA) was added to the cells which were then transferred to 384 well tissue culture plates (5×105 c/ml) containing titrated test compounds. The cells were incubated for 18 hours at 37° C. in serum free assay buffer and the level of TNFalpha in the supernatant was quantitated by AlphaLISA (PerkinElmer) by measuring fluorescence intensity at 615 nm.Results were expressed as IC50 values calculated from inhibition curves using as controls the secretion in LPS stimulated wells and the secretion in cells incubated with 10 microM of a PDE4 inhibitor reference compound.

Tumor necrosis factor, sequence (P01375 whole entry): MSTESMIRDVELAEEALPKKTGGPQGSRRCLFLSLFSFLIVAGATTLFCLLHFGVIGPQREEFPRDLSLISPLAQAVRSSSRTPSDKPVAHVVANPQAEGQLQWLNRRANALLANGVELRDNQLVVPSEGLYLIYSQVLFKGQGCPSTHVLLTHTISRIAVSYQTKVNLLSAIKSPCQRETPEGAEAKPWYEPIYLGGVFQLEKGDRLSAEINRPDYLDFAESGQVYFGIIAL

## CC(=O)N1CC[C@@H](Nc2nc(N3CC(OC(=O)C4CCOCC4)C3)nc3c2[S@+]([O-])CC3)C1
  IC50: > 500 nM
